Data on 3 compounds can be found in PubChem BioAssay AID2418 (NMMLSC, 2010).

The structures appear in SMILES notation. The source made the active and inactive calls.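 Rule for the calls: active = compounds reducing bradykinin-triggered filopodia by more than 10% inhibition at 10 microM; inactive = the rest.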

In general, inhibition refers to the relative decrease from the control value, in per cent.

The test system of this assay is Swiss 3T3 bradykinin-induced filopodia, phalloidin imaging. Briefly: inhibition of bradykinin-induced filopodia formation, orthogonal assay for Ras-related GTPase inhibitor project, imaging, 3T3 cells, bradykinin stimulation (AID 2418). The note with it: at 10 µM; stronger effect = higher value.
For the compound `Cc1ccc(C2CC(c3ccccc3)=NN2c2ccc(S(N)(=O)=O)cc2)cc1` (stereo not drawn), the inhibition was -11% (inactive).
The result for `COc1ccc(C2CC(c3ccccc3)=NN2c2ccc(S(N)(=O)=O)cc2)cc1` (stereo not drawn) reads 56%; that for `Cc1cccc(C2CC(c3ccccc3)=NN2c2ccc(S(N)(=O)=O)cc2)c1` (stereo not drawn), 19%.
